Measurements reported in US20090022757A1, “Method for treating photoreceptor cell degeneration” (priority 2007, published 2009).

Assays:
[1] = tested on: rat retinal photoreceptor; assay: Electroretinogram of rats treated with different MNU dosages; settings: for Number of Eyes with extinguished electroretinogram: n = 10
[2] = tested on: rat retinal photoreceptor cells; assay: Pathological examination (damage score) of retinal photoreceptor cells in rats treated with different MNU dosages

CN(N=O)C(N)=O [MNU, N-methyl-N-nitrosourea]
Number of Eyes with extinguished electroretinogram ([1]; MNU 40 mg/kg, 7 d): 8
a-wave amplitude of electroretinogram ([1]; MNU 40 mg/kg, 10 d): 9.54 ± 12.89
a-wave latent period of electroretinogram ([1]; MNU 40 mg/kg, 10 d): 6.64 ± 8.61
b-wave amplitude of electroretinogram ([1]; MNU 40 mg/kg, 10 d): 24.25 ± 31.58
b-wave latent period of electroretinogram ([1]; MNU 40 mg/kg, 10 d): 27.31 ± 35.56
Number of Eyes with extinguished electroretinogram ([1]; MNU 40 mg/kg, 10 d): 6
a-wave amplitude of electroretinogram ([1]; MNU 45 mg/kg, 12 h): 0
a-wave latent period of electroretinogram ([1]; MNU 45 mg/kg, 12 h): 6.60 ± 9.55
b-wave amplitude of electroretinogram ([1]; MNU 45 mg/kg, 12 h): 0
b-wave latent period of electroretinogram ([1]; MNU 45 mg/kg, 12 h): 25.08 ± 8.55
Number of Eyes with extinguished electroretinogram ([1]; MNU 45 mg/kg, 12 h): 6
a-wave amplitude of electroretinogram ([1]; MNU 45 mg/kg, 1 d): 0
a-wave latent period of electroretinogram ([1]; MNU 45 mg/kg, 1 d): 0
b-wave amplitude of electroretinogram ([1]; MNU 45 mg/kg, 1 d): 0
b-wave latent period of electroretinogram ([1]; MNU 45 mg/kg, 1 d): 0
Number of Eyes with extinguished electroretinogram ([1]; MNU 45 mg/kg, 1 d): 10
a-wave amplitude of electroretinogram ([1]; MNU 45 mg/kg, 3 d): 0
a-wave latent period of electroretinogram ([1]; MNU 45 mg/kg, 3 d): 0
b-wave amplitude of electroretinogram ([1]; MNU 45 mg/kg, 3 d): 0
b-wave latent period of electroretinogram ([1]; MNU 45 mg/kg, 3 d): 0
Number of Eyes with extinguished electroretinogram ([1]; MNU 45 mg/kg, 3 d): 10
a-wave amplitude of electroretinogram ([1]; MNU 45 mg/kg, 7 d): 0
a-wave latent period of electroretinogram ([1]; MNU 45 mg/kg, 7 d): 0
b-wave amplitude of electroretinogram ([1]; MNU 45 mg/kg, 7 d): 0
b-wave latent period of electroretinogram ([1]; MNU 45 mg/kg, 7 d): 0
Number of Eyes with extinguished electroretinogram ([1]; MNU 45 mg/kg, 7 d): 10
a-wave amplitude of electroretinogram ([1]; MNU 45 mg/kg, 10 d): 4.89 ± 10.48
a-wave latent period of electroretinogram ([1]; MNU 45 mg/kg, 10 d): 6.47 ± 7.33
b-wave amplitude of electroretinogram ([1]; MNU 45 mg/kg, 10 d): 11.31 ± 23.93
b-wave latent period of electroretinogram ([1]; MNU 45 mg/kg, 10 d): 14.42 ± 30.46
Number of Eyes with extinguished electroretinogram ([1]; MNU 45 mg/kg, 10 d): 8
a-wave amplitude of electroretinogram ([1]; MNU 50 mg/kg, 12 h): 0
a-wave latent period of electroretinogram ([1]; MNU 50 mg/kg, 12 h): 0
Number of Eyes with extinguished electroretinogram ([1]; MNU 50 mg/kg, 12 h): 10
a-wave amplitude of electroretinogram ([1]; MNU 50 mg/kg, 1 d): 0
a-wave latent period of electroretinogram ([1]; MNU 50 mg/kg, 1 d): 0
Number of Eyes with extinguished electroretinogram ([1]; MNU 50 mg/kg, 1 d): 10
a-wave amplitude of electroretinogram ([1]; MNU 50 mg/kg, 3 d): 0
a-wave latent period of electroretinogram ([1]; MNU 50 mg/kg, 3 d): 0
Number of Eyes with extinguished electroretinogram ([1]; MNU 50 mg/kg, 3 d): 10
a-wave amplitude of electroretinogram ([1]; MNU 50 mg/kg, 7 d): 0
a-wave latent period of electroretinogram ([1]; MNU 50 mg/kg, 7 d): 0
Number of Eyes with extinguished electroretinogram ([1]; MNU 50 mg/kg, 7 d): 10
a-wave amplitude of electroretinogram ([1]; MNU 50 mg/kg, 10 d): 0
a-wave latent period of electroretinogram ([1]; MNU 50 mg/kg, 10 d): 0
Number of Eyes with extinguished electroretinogram ([1]; MNU 50 mg/kg, 10 d): 10
minimum dosage that could cause damage to the entire outer nuclear layer cell of rat retinal [2]: 40 mg/kg
Damage score of rat retinal photoreceptor cells ([2]; MNU 30 mg/kg, 12 h): 0.20 ± 0.42
Damage score of rat retinal photoreceptor cells ([2]; MNU 30 mg/kg, 1 d): 0.40 ± 0.52
Damage score of rat retinal photoreceptor cells ([2]; MNU 30 mg/kg, 3 d): 0.40 ± 0.52
Damage score of rat retinal photoreceptor cells ([2]; MNU 30 mg/kg, 7 d): 0.20 ± 0.42
Damage score of rat retinal photoreceptor cells ([2]; MNU 30 mg/kg, 10 d): 0
Damage score of rat retinal photoreceptor cells ([2]; MNU 35 mg/kg, 12 h): 0.20 ± 0.42
Damage score of rat retinal photoreceptor cells ([2]; MNU 35 mg/kg, 1 d): 0.60 ± 0.52
Damage score of rat retinal photoreceptor cells ([2]; MNU 35 mg/kg, 3 d): 0.80 ± 0.42
Damage score of rat retinal photoreceptor cells ([2]; MNU 35 mg/kg, 7 d): 0.40 ± 0.52
Damage score of rat retinal photoreceptor cells ([2]; MNU 35 mg/kg, 10 d): 0
Damage score of rat retinal photoreceptor cells ([2]; MNU 40 mg/kg, 12 h): 1.00 ± 0.67
Damage score of rat retinal photoreceptor cells ([2]; MNU 40 mg/kg, 1 d): 2.20 ± 1.03
Damage score of rat retinal photoreceptor cells ([2]; MNU 40 mg/kg, 3 d): 4.60 ± 3.10
Damage score of rat retinal photoreceptor cells ([2]; MNU 40 mg/kg, 7 d): 7.60 ± 6.29
Damage score of rat retinal photoreceptor cells ([2]; MNU 40 mg/kg, 10 d): 7.40 ± 6.44
Damage score of rat retinal photoreceptor cells ([2]; MNU 45 mg/kg, 12 h): 1.6 ± 0.52
Damage score of rat retinal photoreceptor cells ([2]; MNU 45 mg/kg, 1 d): 4.00 ± 2.31
Damage score of rat retinal photoreceptor cells ([2]; MNU 45 mg/kg, 3 d): 6.80 ± 5.27
Damage score of rat retinal photoreceptor cells ([2]; MNU 45 mg/kg, 7 d): 9.60 ± 5.95
Damage score of rat retinal photoreceptor cells ([2]; MNU 45 mg/kg, 10 d): 9.20 ± 6.20
Damage score of rat retinal photoreceptor cells ([2]; MNU 50 mg/kg, 12 h): 2.40 ± 1.43
Damage score of rat retinal photoreceptor cells ([2]; MNU 50 mg/kg, 1 d): 6.80 ± 5.27
Damage score of rat retinal photoreceptor cells ([2]; MNU 50 mg/kg, 3 d): 10.04 ± 5.06
Damage score of rat retinal photoreceptor cells ([2]; MNU 50 mg/kg, 7 d): 11.20 ± 5.27
Damage score of rat retinal photoreceptor cells ([2]; MNU 50 mg/kg, 10 d): 11.20 ± 5.27
